pIC50: −log10 of the molar value.
Columns and labels:
Homo sapiens [1] = organism: Homo sapiens; experiment: Selectivity index, ratio of IC50 for inhibition of C-terminal 10-His tagged human recombinant HGFA (Gln36 to Ser655 residues) to IC50 for inhibition of N-terminal 6His-tagged human recombinant TMPRSS2 (106 to 492 residues)
[2] = biological target: T1, Hepatocyte growth factor activator serine protease (Homo sapiens, UniProt Q04756); experiment: Inhibition of C-terminal 10-His tagged human recombinant HGFA (Gln36 to Ser655 residues) using Boc-QLR-AMC as substrate preincubated for 30 mins followed by substrate addition and measured by fluorescence based analysis
T1 sequence (Q04756 whole entry): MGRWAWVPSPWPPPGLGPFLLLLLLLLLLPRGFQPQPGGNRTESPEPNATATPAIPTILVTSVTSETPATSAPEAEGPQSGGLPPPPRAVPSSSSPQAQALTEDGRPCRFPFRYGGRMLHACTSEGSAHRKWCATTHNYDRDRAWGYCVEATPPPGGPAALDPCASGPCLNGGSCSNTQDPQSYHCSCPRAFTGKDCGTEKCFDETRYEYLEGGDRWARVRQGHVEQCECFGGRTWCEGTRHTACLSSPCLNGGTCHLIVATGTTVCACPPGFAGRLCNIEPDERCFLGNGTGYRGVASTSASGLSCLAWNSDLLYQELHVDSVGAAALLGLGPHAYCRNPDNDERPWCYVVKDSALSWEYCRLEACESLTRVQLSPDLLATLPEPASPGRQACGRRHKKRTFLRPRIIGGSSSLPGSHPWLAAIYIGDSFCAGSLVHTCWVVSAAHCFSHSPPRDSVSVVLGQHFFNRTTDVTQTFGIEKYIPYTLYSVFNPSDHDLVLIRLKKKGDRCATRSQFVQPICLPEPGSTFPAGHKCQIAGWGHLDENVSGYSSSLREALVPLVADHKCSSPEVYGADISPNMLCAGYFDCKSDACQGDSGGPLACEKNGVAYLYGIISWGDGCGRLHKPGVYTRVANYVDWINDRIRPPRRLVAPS

Serine protease hepsin = Serine protease hepsin (Homo sapiens, UniProt P05981); experiment: Inhibition of C-terminal 10-His tagged human recombinant hepsin (Arg45 to Leu417 residues) using Boc-QAR-AMC as substrate preincubated for 30 mins followed by substrate addition and measured by fluorescence based analysis
Homo sapiens [3] = organism: Homo sapiens; experiment: Selectivity index, ratio of IC50 for inhibition of N-terminal Met/6His tagged human recombinant matriptase catalytic domain (Gly596 to Val855 residues) to IC50 for inhibition of N-terminal 6His-tagged human recombinant TMPRSS2 (106 to 492 residues)
Homo sapiens [4] = organism: Homo sapiens; experiment: Selectivity index, ratio of IC50 for inhibition of C-terminal 10-His tagged human recombinant hepsin (Arg45 to Leu417 residues) to IC50 for inhibition of N-terminal 6His-tagged human recombinant TMPRSS2 (106 to 492 residues)
[5] = biological target: Transmembrane protease serine 2 (Homo sapiens, UniProt O15393); experiment: Inhibition of N-terminal 6His-tagged human recombinant TMPRSS2 (106 to 492 residues) using Boc-QAR-AMC as substrate preincubated for 30 mins followed by substrate addition and measured by fluorescence based analysis
[6] = biological target: T2, Suppressor of tumorigenicity 14 protein (Homo sapiens, UniProt Q9Y5Y6); experiment: Inhibition of N-terminal Met/6His tagged human recombinant matriptase catalytic domain (Gly596 to Val855 residues) using Boc-QAR-AMC as substrate preincubated for 30 mins followed by substrate addition and measured by fluorescence based analysis
T2 sequence (Q9Y5Y6 whole entry): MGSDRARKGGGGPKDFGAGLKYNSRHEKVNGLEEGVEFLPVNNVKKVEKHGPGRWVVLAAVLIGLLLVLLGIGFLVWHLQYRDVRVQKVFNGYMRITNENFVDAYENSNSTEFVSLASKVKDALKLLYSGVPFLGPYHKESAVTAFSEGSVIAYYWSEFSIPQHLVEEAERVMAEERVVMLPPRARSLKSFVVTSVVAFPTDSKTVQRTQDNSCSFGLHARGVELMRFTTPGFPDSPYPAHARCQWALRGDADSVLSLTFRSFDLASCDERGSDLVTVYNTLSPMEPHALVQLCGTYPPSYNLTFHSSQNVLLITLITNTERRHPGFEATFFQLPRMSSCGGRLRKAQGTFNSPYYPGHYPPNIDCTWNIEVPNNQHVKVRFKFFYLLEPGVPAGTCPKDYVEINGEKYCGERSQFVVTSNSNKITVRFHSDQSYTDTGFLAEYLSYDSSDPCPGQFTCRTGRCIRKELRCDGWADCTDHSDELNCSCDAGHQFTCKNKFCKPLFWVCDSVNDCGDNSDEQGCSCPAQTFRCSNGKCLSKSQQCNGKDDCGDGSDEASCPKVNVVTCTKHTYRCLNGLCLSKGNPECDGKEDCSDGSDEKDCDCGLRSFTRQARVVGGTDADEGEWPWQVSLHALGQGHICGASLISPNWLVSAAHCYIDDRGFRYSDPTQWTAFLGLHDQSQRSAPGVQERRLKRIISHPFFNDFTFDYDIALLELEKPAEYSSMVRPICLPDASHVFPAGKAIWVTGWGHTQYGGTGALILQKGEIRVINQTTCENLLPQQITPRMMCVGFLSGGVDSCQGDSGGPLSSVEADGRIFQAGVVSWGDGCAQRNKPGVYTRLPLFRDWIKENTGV

[7] = biological target: Coagulation factor X, Homo sapiens (UniProt P00742); experiment: Inhibition of factor Xa (unknown origin) using Bz-lle-Glu-Gly-Arg-pNA as chromogenic substrate preincubated for 30 mins followed by substrate addition by absorbance based analysis
[8] = Metabolic stability in mouse plasma assessed as compound remaining measured at 2 hrs; type: ADME, cell-free; conditions: read-out: Stability
[9] = Metabolic stability in human plasma assessed as half life; type: ADME, cell-free
[10] = Metabolic stability in human plasma assessed as compound remaining measured at 2 hrs; type: ADME, cell-free; conditions: read-out: Stability
[11] = Metabolic stability in mouse plasma assessed as half life; type: ADME, cell-free
[12] = Metabolic stability in mouse plasma assessed as drug degradation measured after 2 hrs; type: ADME, cell-free
[13] = Elimination half life in male CD-1 mouse at 13 to 20 mg/kg, ip administered as single dose and measured upto 24 hrs by LC-MS/MS analysis; type: ADME, organism-based; conditions: in vivo, dose 13-20 mg/kg
[14] = Half life in male CD-1 mouse at 13 to 20 mg/kg, ip administered as single dose and measured upto 24 hrs by LC-MS/MS analysis; type: ADME, organism-based; conditions: in vivo, dose 13-20 mg/kg
[15] = Drug uptake in male CD-1 mouse at 13 to 20 mg/kg, ip administered as single dose and measured upto 24 hrs by LC-MS/MS analysis; type: ADME, organism-based; conditions: in vivo, dose 13-20 mg/kg

Row | SMILES | pIC50 (Serine protease hepsin) | pIC50 [5] | pIC50 [6] | pIC50 [7] | remaining at 2 h [8] | t1/2 [9] | remaining at 2 h [10] | t1/2 [11] | also measured
1 | CC(=O)N[C@H]1Cc2ccc(cc2)Oc2ccc(cc2)C[C@@H](C(=O)N[C@@H](CCCNC(=N)N)C(=O)c2nc3ccccc3s2)NC(=O)[C@H](CC(C)C)NC1=O | 8.12 | 8.92 | 6.74 |  |  |  |  |  | Ratio IC50 (Homo sapiens [1]): 200; pIC50 [2]: 6.60; Ratio IC50 (Homo sapiens [3]): 144; Ratio IC50 (Homo sapiens [4]): 6
2 | CC(=O)N[C@H]1C/C=C/COc2ccc(cc2)C[C@@H](C(=O)N[C@@H](CCCNC(=N)N)C(=O)c2nc3ccccc3s2)NC(=O)[C@H](CC(C)C)NC1=O | 7.70 | 7.85 | 7.85 | < 4.70 | 84% | 4.77 h | 78% | > 4.82 h | pIC50 [2]: < 4.70
3 | CC(=O)N[C@H]1Cc2ccc(cc2)OCCCC[C@@H](C(=O)N[C@@H](CCCNC(=N)N)C(=O)c2nc3ccccc3s2)NC(=O)[C@H](Cc2c[nH]c3ccccc23)NC1=O | 8.55 |  |  |  | 78% | 3.82 h | 67% | > 4.82 h | 
4 | CC(=O)N[C@H]1Cc2ccc(cc2)OCCCC[C@@H](C(=O)N[C@@H](CCCNC(=N)N)C(=O)c2nc3ccccc3s2)NC(=O)[C@@H](Cc2c[nH]c3ccccc23)NC1=O |  | 8.43 |  |  | 100% | 1.95 h | 53% |  | Stability [12]: Stable
5 | CC(=O)N[C@H]1Cc2ccc(cc2)OCCCC[C@@H](C(=O)N[C@@H](CCCNC(=N)N)C(=O)c2nc3ccccc3s2)NC(=O)[C@H](CC(C)C)NC1=O |  |  |  |  | 98% | > 4.82 h | 79% | > 4.82 h | Stability [12]: Stable
6 | CC(=O)N[C@H]1Cc2cccc(c2)Oc2ccc(cc2)C[C@@H](C(=O)N[C@@H](CCCNC(=N)N)C(=O)c2nc3ccccc3s2)NC(=O)[C@H](CC(C)C)NC1=O |  | 7.82 |  |  |  |  |  |  | 
7 | CC(=O)N[C@H]1Cc2ccc(cc2)OC/C=C/C[C@@H](C(=O)N[C@@H](CCCNC(=N)N)C(=O)c2nc3ccccc3s2)NC(=O)[C@H](CC(C)C)NC1=O |  | 8.92 | 8.47 | < 4.70 | 86% | > 4.82 h | 77% | > 4.82 h | pIC50 [2]: 7.59; beta t1/2 [13]: < 0.5 h
8 | CC(=O)N[C@H]1Cc2ccc(cc2)OC/C=C\CNC(=O)CC[C@@H](C(=O)N[C@@H](CCCNC(=N)N)C(=O)c2nc3ccccc3s2)NC(=O)[C@H](CC(C)C)NC1=O |  |  |  | < 4.70 | 66% | > 4.82 h | 76% | 3.93 h | 
9 | CC(=O)N[C@H]1Cc2ccc(cc2)Oc2cccc(c2)C[C@@H](C(=O)N[C@@H](CCCNC(=N)N)C(=O)c2nc3ccccc3s2)NC(=O)[C@H](CC(C)C)NC1=O | 9.70 |  |  | 4.89 |  |  |  |  | t1/2 [14]: 4.5 h; Drug uptake [15]: Active
10 | CC(=O)N[C@H]1Cc2ccc(cc2)OC/C=C\CNC(=O)C[C@@H](C(=O)N[C@@H](CCCNC(=N)N)C(=O)c2nc3ccccc3s2)NC(=O)[C@H](CC(C)C)NC1=O |  | 7.66 | 7.27 | < 4.70 | 95% | > 4.82 h | 81% | > 4.82 h | Stability [12]: Stable
11 | CC(=O)N[C@H]1Cc2ccc(cc2)OCCCC[C@@H](C(=O)N[C@@H](CCCNC(=N)N)C(=O)c2nc3ccccc3s2)NC(=O)[C@H](Cc2ccccc2)NC1=O |  | 7.80 |  |  | 80% | 3.15 h | 65% | > 4.82 h | 
12 | CC(=O)N[C@H]1Cc2cn(nn2)CCCC[C@H](C(=O)N[C@@H](CCCNC(=N)N)C(=O)c2nc3ccccc3s2)NC(=O)[C@H](CC(C)C)NC1=O |  |  |  |  | 83% | > 4.82 h | 85% | > 4.82 h | 
13 | CC(=O)N[C@H]1CCCCn2cc(nn2)C[C@H](C(=O)N[C@@H](CCCNC(=N)N)C(=O)c2nc3ccccc3s2)NC(=O)[C@H](CC(C)C)NC1=O |  |  |  |  | 82% | > 4.82 h | 83% | > 4.82 h | 

— ChEMBL document CHEMBL5518225, “Mechanism-Based Macrocyclic Inhibitors of Serine Proteases” (J Med Chem, 2024)
